The text below walks through data of patent publication US11999993B2, “Use of biomarkers in identifying cancer patients that will be responsive to treatment with a PRMT5 inhibitor” (Janssen Pharmaceutica NV, priority 2017, dated 2024).

The structures appear in SMILES notation.

One test relates to NCI-H1048. The test is described as follows: Cellular sensitivity, lung cancer cell line panel (SCLC). Type of test: cell-based. Conditions: Homo sapiens, NCI-H1048, PIK3CA H1047R.
Another test has as its system LU99a. The description is as above. It is filed as cell-based. The following applies: Homo sapiens, LU-99A, PIK3CA T1025A.
The next test concerns H69V. The test is described as above. Type of test: cell-based. The following applies: PIK3CA G106_R108del.
For a further test, the system named is NCI-H441. Put plainly: Proliferation sensitivity, NSCLC U2AF1-S34F cell panel. Type of test: cell-based. The following applies: Homo sapiens, Adenocarcinoma.
For the next test, the system named is LC-2/ad. The test is described as above. Type of test: cell-based. The following applies: Homo sapiens, Adenocarcinoma.
The subject of the next test is HCC78. Described as above. It is filed as cell-based. Conditions: Homo sapiens, Adenocarcinoma.
The next test has as its system EPLC272H. Put plainly: Lung cell line panel sensitivity, Cyclin D1 pathway amplified NSCLC. It is filed as cell-based. The following applies: Homo sapiens, EPLC-272H, Adenocarcinoma.
The test system of a further test is NCI-H226. The description is as above. It is filed as cell-based. The following applies: Homo sapiens; NCI-H226, CDK4 amplified, Adenocarcinoma.
In a further test the test system is HLC1. Described as above. Type of test: cell-based. The following applies: HLC1, CDK6 amplified, Squamous Cell Carcinoma.
A further test has as its target PRMT5 (Homo sapiens, UniProt O14744). Conditions: Chan-Penebre et al., Nat Chem Biol 2015; cited from earlier work.
The test system of the next test is MCL xenograft models. Conditions: multiple MCL xenograft models; Chan-Penebre et al. 2015; cited from earlier work.

PRMT5, sequence (O14744 whole entry): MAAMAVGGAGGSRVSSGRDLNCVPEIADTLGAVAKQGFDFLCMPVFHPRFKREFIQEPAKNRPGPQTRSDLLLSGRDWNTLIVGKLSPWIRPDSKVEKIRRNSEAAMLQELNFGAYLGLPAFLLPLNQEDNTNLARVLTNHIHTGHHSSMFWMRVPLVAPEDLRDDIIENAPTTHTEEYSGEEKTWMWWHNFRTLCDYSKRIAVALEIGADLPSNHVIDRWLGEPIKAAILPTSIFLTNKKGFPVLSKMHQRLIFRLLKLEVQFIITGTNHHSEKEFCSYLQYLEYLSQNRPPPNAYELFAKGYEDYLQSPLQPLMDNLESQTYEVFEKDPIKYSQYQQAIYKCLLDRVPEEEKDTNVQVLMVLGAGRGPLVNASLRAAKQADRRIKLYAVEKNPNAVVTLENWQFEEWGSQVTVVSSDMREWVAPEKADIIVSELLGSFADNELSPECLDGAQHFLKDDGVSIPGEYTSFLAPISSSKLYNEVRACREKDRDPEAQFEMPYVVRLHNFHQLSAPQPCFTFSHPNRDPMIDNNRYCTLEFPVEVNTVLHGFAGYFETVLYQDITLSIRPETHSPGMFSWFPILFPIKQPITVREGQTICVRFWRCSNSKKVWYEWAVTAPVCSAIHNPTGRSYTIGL
PRMT5, sequence (Q9BQA1 whole entry partner): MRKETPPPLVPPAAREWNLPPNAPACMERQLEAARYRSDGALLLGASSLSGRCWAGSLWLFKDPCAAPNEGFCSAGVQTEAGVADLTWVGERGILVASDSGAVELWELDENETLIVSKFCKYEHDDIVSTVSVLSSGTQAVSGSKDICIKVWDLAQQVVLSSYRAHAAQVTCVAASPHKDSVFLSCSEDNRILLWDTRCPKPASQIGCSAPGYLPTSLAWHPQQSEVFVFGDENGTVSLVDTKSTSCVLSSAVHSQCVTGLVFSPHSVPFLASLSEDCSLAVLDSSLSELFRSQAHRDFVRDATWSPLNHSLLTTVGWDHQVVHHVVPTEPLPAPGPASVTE

Consider `Nc1ncnc2c1ccn2[C@@H]1O[C@H](COc2ccc3cc(Br)cnc3c2)[C@@H](O)[C@H]1O` [Compound 2], for which the GI50 (usually the concentration at which growth is held to half of that of the control) with NCI-H1048 amounted to 0.0946 µM; in the test with LU99a, 0.129 µM; with H69V, 0.0856 µM; in the test on NCI-H441, 0.0984 µM; in the test on LC-2/ad, 0.116 µM; in the test with HCC78, 0.108 µM. Further, the GI50 in the test on EPLC272H was found to be 0.0985 µM; in the test with NCI-H226 it was 0.205 µM; in the test on HLC1 it was 0.0964 µM.

On to `O=C(NC[C@H](O)CN1CCc2ccccc2C1)c1cc(NC2COC2)ncn1` [EPZ015666], for which, on PRMT5, the PRMT5 inhibitor potency entry is “sub-nanomolar”. Besides, the anti-tumor activity result in the test with MCL xenograft models is given as “anti-tumor activity in multiple MCL xenograft models”.
